EC50, AC1.4 and BBB score data for 30 compounds are collected here from patent publication US11479561B2, “Tetrahydroisoquinoline derivatives” (Cytokinetics, Incorporated, priority 2016, dated 2022).

One may read the EC50 as the midpoint of the concentration-response curve.

The subject of assay [1] is ankle plantarflexor muscle. As to the kind of experiment: Rat isometric ankle plantarflexor muscle force. The class given is in vivo, Sprague Dawley rats. The following applies: estimated, concentration at which muscle force is 50% of the pre-dose maximum tension, 30 Hz stimulation, continuous intravenous infusion over 60 min. The source says: Female Sprague Dawley rats were placed under a stable anesthesic plane with inhaled isoflurane (1-5%). One incision was made on the mid-thigh region of the right leg to expose the sciatic nerve. To prevent co-contraction of the ankle dorsiflexors, an additional incision was made lateral to the patella to isolate and sever the peroneal nerve. Rats were then placed on a temperature-maintained in situ muscle analysis rig (Aurora Scientific, Model 806C). The knee was immobilized in a clamp between two sharpened screws and the foot was taped to a footplate attached to a force transducer (Aurora Scientific, Ontario, Canada). Stainless steel needle electrodes (0.10 mm) were hooked around the exposed sciatic nerve. Isometric ankle plantarflexor muscle contractile force was assessed with the ankle joint at 90° flexion. A 30 Hz electrical stimulation (under supramaximal voltage conditions) was applied to the nerve and the resulting muscle force was recorded via a servomotor. A pre-dose 30 Hz force response was established as the baseline force. A pre-dose 150 Hz force response was established as the maximum isometric force. Compounds were formulated in 50% polyethylene glycol (PEG): 16% Cavitron: 10% dimethylacetamide (DMA) and administered by continuous intravenous infusion over a sixty minute period. The muscle force response to compound was measured every two minutes over the dosing period. Data was reported as an estimated EC50 value, which is the concentration at which muscle force is 50% of the pre-dose maximum tension.

Assay [2] has as its system rabbit skeletal myofibrils (approximately 90% fast fibers). The assay is described as follows: Activation of fast skeletal myofibrils (PUMA coupled-enzyme ATPase assay). Type of assay: biochemical. The following applies: concentration at which the compound increased the enzymatic activity by 40%; calcium level pCa25. Here is the method:
Preparation of fast skeletal myofibrils: Rabbit skeletal myofibrils were prepared based upon the method of Herrmann et al. (Biochem. 32(28):7255-7263(1993). Myofibrils were prepared from rabbit psoas muscle purchased from Pel-Freez Biologicals (Arkansas) within 2 days of ordering, stored on ice. Minced muscle was homogenized in 10 volumes of ice-cold “standard” buffer (50 mM Tris, pH 7.4, 0.1 M KOAc, 5 mM KCl, 2 mM dithiothreitol (DTT), 0.2 mM phenylmethylsulfonyl fluoride (PMSF), 10 μM leupeptin, 5 μM pepstatin, and 0.5 mM sodium azide) containing 5 mM ethylenediaminetetraacetic acid (EDTA) and 0.5% Triton X-100 using an Omni-Macro homogenizer. Myofibrils were recovered by low speed centrifugation (3000 rpm for 10 minutes) and washed 2 times in the Triton X-100 containing buffer to ensure removal of cellular membrane. Following the Triton washes, myofibrils were washed 3 times in “standard” buffer containing 2 mM magnesium acetate. A final wash in assay buffer (12 mM piperazine-1,4-bis(2-ethanesulfonic acid) (PIPES), pH 6.8, 60 mM KCl, 1 mM DTT) was performed and brought to 10% sucrose for flash freezing in liquid nitrogen and storage at −80° C.
Activation of Fast Skeletal Myofibrils: Fast fiber activators were identified by Measuring the enzymatic activity of muscle myofibril preparations using the proprietary PUMA (trademark) (see, e.g., U.S. Pat. Nos. 6,410,254, 6,743,599, 7,202,051, and 7,378,254) assay system. Myofibril preparations consisted of rabbit skeletal muscle (approximately 90% fast fibers) that had been mechanically homogenized and washed with a detergent (Triton X-100) to remove cellular membranes. This preparation retained all of the sarcomeric components in a native conformation and the enzymatic activity was still regulated by calcium. Compounds were tested using a myofibril suspension and a level of calcium sufficient to increase enzymatic activity of the myofibrils to 25% of their maximal rate (termed pCa25). Enzymatic activity was tracked via a pyruvate kinase and lactate dehydrogenase-coupled enzyme system. This assay regenerates myosin-produced ADP into ATP by oxidizing NADH, producing an absorbance change at 340 nm. The buffering system was 12 mM PIPES, 2 mM MgCl2, 1 mM DTT at pH 6.8 (PM12 buffer).

The next assay concerns rat model of post-SCI. As to the kind of experiment: Basso, Beattie, and Bresnahan (BBB) score of post-spinal cord injury (SCI). The class given is in vivo, SD rats. The following applies: post-SCI rats; day 6-7, 13-14, 20-21 after SCI; FIG. 8. Here is the method:
Preparation of the rat model of post-SCI: The rat model was prepared based on the method of Scheff et. al. (J Neurotrauma. 2003 February; 20(2):179-93.) which uses Infinite Horizon impactor (IH-0400; Precision Systems and Instrumentation). Female SD rats (10 week old) were anesthetized with a mixture of 0.3 mg/kg medetomidine, 4 mg/kg midazoram, and 5 mg/kg butorphanol (s.c.). The dorsal region of the rats was incised and the thoracic spine from T8 to T12 was exposed. Subsequently, laminectomy was performed on T9 and T10. On the stage of IH-0400, the exposed spinal column of the rats was stabilized by clamping with two forceps attached to the joints of IH-0400. Each of the joint and the forceps was tightly locked. Injury of T9 and T10 was induced with a rod impact of 210 kdyn. After dorsal closure, the rats were housed one per cage under the postoperative care which includes the injections of 5 mL saline s.c. and 50 mg/kg Cefamezin s.c twice a day for a week after the SCI, and includes the manual expression of the bladder of the rats twice a day using Crede maneuver until the function of the bladder recovers. […] The effect of Example Compound 52 or vehicle was analyzed using unpaired t test (a probability value of less than 0.05 was considered as a significant difference). Data were expressed as the mean±SEM.

On to `CCC1(CC)C(=O)NC2(COC2)c2cccnc21` [compound 12], for which the half-maximal effective concentration (EC50) in assay [1] (Rattus norvegicus, iv, 1 h) was 34 µM.
`CCC1(CC)C(=O)NC2(COC2)c2ncc(Cl)cc21` [compound 74]: the AC1.4 in assay [2] is 0.902 µM. For the same compound, in assay [1] (Rattus norvegicus, iv, 1 h), the concentration giving a half-maximal response (EC50) was 15.4 µM.
On the same counts, the results for `CC1(CCO)C(=O)NC2(COC2)c2ccc(C#N)cc21` (stereo not shown) [compound 56] are 2.067 µM and 30 µM.
In the case of `CCC1(CCO)C(=O)NC2(COC2)c2ccc(OC(F)F)nc21` (stereo not shown) [compound 15], the EC50 in assay [1] (Rattus norvegicus, iv, 1 h) was 16.4 µM.
For `CCC1(CC)C(=O)NC(C)(C)c2ccc(C#N)nc21` [compound 64], the AC1.4 in assay [2] turned out to be 0.390 µM. Moreover, in assay [1] (Rattus norvegicus, iv, 1 h), the EC50 is 10 µM.
Turning to `CC1(C)C(=O)NC2(COC2)c2ccc(C#N)cc21` [compound 20], in assay [1] (Rattus norvegicus, iv, 1 h), the EC50 was 30 µM.
With `CC1(CCO)C(=O)NC2(COC2)c2ccc(Cl)cc21` (stereo not shown) [compound 35, 6-chloro-4-(2-hydroxyethyl)-4-methyl-2H-spiro[isoquinoline-1,3′-oxetan]-3(4H)-one], the AC1.4 in assay [2] is 0.565 µM. In assay [1], the EC50 is 23 µM.
For the compound `CC1(CC(F)F)C(=O)NC2(COC2)c2ccc(OC(F)F)nc21` (stereo not shown) [compound 113], in assay [2], the AC1.4 worked out at 0.271 µM. In addition, the EC50 in assay [1] (Rattus norvegicus, iv, 1 h) is 8 µM.
Taken in the same sequence, the figures for `CCC1(CC)C(=O)NC(C)(C)c2ncc(C#N)cc21` [compound 57] were 0.976 µM and 28 µM.
In the case of `CC1(C)NC(=O)C(C)(C)c2cc(Cl)cnc21` [compound 73], in assay [2], the AC1.4 amounted to 1.571 µM. Besides, the EC50 in assay [1] (Rattus norvegicus, iv, 1 h) is 50 µM.
Turning to `CCC1(CC)C(=O)NC2(COC2)c2ccc(C#N)nc21` [compound 16], the half-maximal effective concentration (EC50) in assay [1] (Rattus norvegicus, iv, 1 h) is 13 µM.
Regarding `CC1(C)NC(=O)C(C)(C)c2cc(C#N)ccc21` [compound 61], in assay [2], the AC1.4 turned out to be 0.537 µM. Besides, in assay [1] (Rattus norvegicus, iv, 1 h), the EC50 was 10.3 µM.
On the same counts, the results for `CCC1(CC)C(=O)NC(C)(C)c2ccc(Br)cc21` [compound 49] are under 0.077 µM and 8.2 µM.
As for `CCC1(CCO)C(=O)NC2(COC2)c2ccc(C(F)F)nc21` (stereo not shown) [compound 104], the AC1.4 in assay [2] was determined as 5.017 µM. The 50% effective concentration (EC50) in assay [1] is 30 µM.
Consider `CCC1(CCO)C(=O)NC2(COC2)c2ccc(C(F)F)nc21` (stereo not shown) [compound 103], for which, in assay [2], the AC1.4 is 1.247 µM. In assay [1] (Rattus norvegicus, iv, 1 h), the EC50 is 23 µM.
Taken in the same sequence, the figures for `CCC1(CC)C(=O)NC(C)(C)c2ncc(Cl)cc21` [compound 72] were 0.420 µM and 15.4 µM.
Turning to `CCC1(CC)C(=O)NC2(COC2)c2ccc(C#N)cc21` [compound 55, 4,4-diethyl-3-oxo-3,4-dihydro-2H-spiro[isoquinoline-1,3′-oxetane]-6-carbonitrile], the AC1.4 in assay [2] worked out at 0.141 µM. In addition, in assay [1] (Rattus norvegicus, iv, 1 h), the EC50 was 7.6 µM.
On the same counts, the results for `CCC1(CC)C(=O)NC2(COC2)c2ncc(C#N)nc21` [compound 106] are 0.494 µM and 15 µM.
With `CCC1(CC)C(=O)NC2(COC2)c2ccc(C(F)F)nc21` [compound 13], in assay [1] (Rattus norvegicus, iv, 1 h), the 50% effective concentration (EC50) is 19.5 µM.
Still for that read-out and setting: under `CC1(CCO)C(=O)NC2(COC2)c2ccc(OC(F)F)nc21` (stereo not shown) [compound 19] stands 35 µM; under `CCC1(CC)C(=O)NC2(COC2)c2ccc(OCC(F)(F)F)nc21` [compound 11], 17 µM.
In the case of `CCC1(CC)C(=O)NC(C)(C)c2ccc(C)cc21` [compound 46], in assay [2], the AC1.4 was 0.106 µM.
On to `CC1(C)C(=O)NC2(COC2)c2ccc(Cl)cc21` [compound 52, 6-chloro-4,4-dimethyl-2H-spiro[isoquinoline-1,3′-oxetan]-3(4H)-one], for which, in assay [2], the AC1.4 was 0.326 µM. Besides, in the assay with rat model of post-SCI, the BBB score entry is listed as “increased BBB score”. Moreover, the EC50 in assay [1] (Rattus norvegicus, iv, 1 h) is 25.6 µM.
As for `CC1(C)C(=O)NC2(COC2)c2ccc(OC(F)F)nc21` [compound 18], the half-maximal effective concentration (EC50) in assay [1] (Rattus norvegicus, iv, 1 h) is 16 µM.
Regarding `CCC1(C)C(=O)NC(C)(C)c2ccc(C#N)nc21` (stereo not shown) [compound 108], the AC1.4 in assay [2] turned out to be 0.450 µM. The concentration giving a half-maximal response (EC50) in assay [1] (Rattus norvegicus, iv, 1 h) was 23 µM.
On the same counts, the results for `CCC1(CCO)C(=O)NC2(COC2)c2ccc(C#N)nc21` (stereo not shown) [compound 101] are 2.228 µM and 24 µM.
On the same counts, the results for `CC1(C)NC(=O)C(C)(Cc2cc[nH]n2)c2nc(C#N)ccc21` (stereo not shown) [compound 109] are 1.919 µM and 39.7 µM.
On to `CCC1(CC)C(=O)NC(C)(C)c2cc(C)c(C#N)cc21` [compound 97], for which the AC1.4 in assay [2] turned out to be 0.332 µM.
The same measure, in the same setting: under `CCC1(Cc2ccccc2Cl)C(=O)NC(C)(C)c2ccc(Br)cc21` (stereo not shown) [compound 79] stands under 0.077 µM.
Same read-out and setting: as for `CC1(C)NC(=O)C2(CCN(S(C)(=O)=O)CC2)c2cc(Cl)ccc21` [compound 155, 6-chloro-1,1-dimethyl-1′-(methylsulfonyl)-1,2-dihydro-3H-spiro[isoquinoline-4,4′-piperidin]-3-one], the figure is 8.340 µM.
